In patent US10196556B2, “Surfactant composition” (RHODIA OPERATIONS, priority 2012, dated 2019):
Read-outs that look alike come from different tables or passages of the source.

Assay: Static foam test (Waring blender), foam persistence
Type: physicochemical
Settings: for Foam Volume: ambient temperature; for Foam Quality (%): from flash foam volume and 200 ml solution volume
Protocol: In order to perform static foam testing, 10% aqueous stock solutions of the surfactant compositions were prepared in distilled water. These were added to 10% w/w aqueous sodium chloride solution, such that the concentration of the surfactant in the brine was 1000 ppm.
Surfactant compositions according to the invention were benchmarked against the individual surfactants. A Waring type blender was used.
The flash foam volumes were measured by taking 200 ml of a surfactant composition according to the invention, subjecting it to high shear for 30 seconds at ambient temperature (20° C.) and then transferring the foam immediately to a measuring cylinder (1000 ml) for measurement. This initial volume was the flash volume. The foam and liquid volume was monitored for a further 10 minutes.
The ‘half-life’ of the foam was defined as the time taken for 100 ml of fluid to drain from the foam. Without being bound by theory, an increase in the half-life corresponds to a reduction in the liquid drainage rate and reflects the texture of the foam. Denser foams, as a rule, tend to take longer to drain and therefore are more persistent.
Static foam tests are a rapid and relatively straightforward method to screen the foam performance of surfactants. The method provides information on the stability and quality, i.e. texture (structure), of the foam produced in a Waring blender. The mechanical properties of the foam lamellae and foam structure are determined to some extent by the packing of the surfactant molecules at the gas/liquid interface. The foam structure influences liquid drainage rates and therefore, the persistence or stability of the foam.
Surfactant solutions (200 ml) were subjected to high shear for 30 seconds at ambient temperatures and the foam transferred immediately to a measuring cylinder (1000 ml). The foam and liquid volume was monitored for a further 10 minutes. 10% active aqueous stock solutions of the surfactants were prepared in distilled water and these were added to 10% w/w aqueous sodium chloride solution. The concentration of the surfactant in the brine was 1000 ppm.
The initial foam volume is also called the ‘flash’ foam.

[1] = 0 s (flash foam), 1000 ppm surfactant in 10% w/w NaCl
[2] = 120 s, 1000 ppm surfactant in 10% w/w NaCl
[3] = 240 s, 1000 ppm surfactant in 10% w/w NaCl
[4] = 360 s, 1000 ppm surfactant in 10% w/w NaCl
[5] = 480 s, 1000 ppm surfactant in 10% w/w NaCl
[6] = 600 s, 1000 ppm surfactant in 10% w/w NaCl
[7] = 1000 ppm surfactant in 10% w/w NaCl
[8] = time for 100 ml of fluid to drain from the foam, 1000 ppm surfactant in 10% w/w NaCl

With Lauramidopropyl betaine [Mackam LMB] the “Foam Volume” value [1] was 670 mL, the “Foam Volume” value [2] was 524 mL and the “Foam Volume” value [3] was 486 mL. For the same substance, the “Foam Volume” value [4] was 430 mL, the “Foam Volume” value [5] was 360 mL and the “Foam Volume” value [6] was 350 mL. For the same substance, the “Foam Quality (%)” value [7] was 70.1% and the “Half-life” value [8] was 4.5 min.
For “Lauramidopropyl hydroxysultaine [Mackam LSB-50]”, the “Foam Volume” value [1] was 600 mL, the “Foam Volume” value [2] was 406 mL and the “Foam Volume” value [3] was 350 mL. For the same substance, the “Foam Volume” value [4] was 280 mL, the “Foam Volume” value [5] was 240 mL and the “Foam Volume” value [6] was 210 mL. The “Foam Quality (%)” value [7] was 66.7% and the “Half-life” value [8] was 3.2 min.
With “Sodium hydroxypropyl sulfonate lauryl glucose crosspolymer [PolySugaNate 160P]” the “Half-life” value was 0.4 min.
